The supplement of paper PMC11061612

What was measured:
Experiment in all cases: combination Emax (second highest fraction inhibited in the dose matrix, 72 h); higher = more inhibition; extreme values may be limits of the assay
MCF7 (Breast Carcinoma) = test system: MCF7 (Breast Carcinoma)
How it was run: (§1)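 Bliss excess equals the observed combination effect minus the expected value EA + EB − EA·EB, where EA and EB are the effects of each agent alone. Combination Emax is the second-highest inhibition within the matrix. Inhibition was scaled from CellTiter-Glo 2.0 luminescence, with 0 set by vehicle wells and 1 by blank wells, after 72 hours of two-drug dosing of cells plated in 1536-well plates.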

CS1 (Chondrosarcoma) = test system: CS1 (Chondrosarcoma)
How it was run: as §1

[1] = test system: NCI-H1688 (Small Cell Lung Carcinoma)
How it was run: as §1

H4 (Low Grade Glioma) = test system: H4 (Low Grade Glioma)
How it was run: as §1

EW-22 (Ewing's Sarcoma) = test system: EW-22 (Ewing's Sarcoma)
How it was run: as §1

[2] = test system: SW48 (Colorectal Carcinoma)
How it was run: as §1

[3] = test system: NOMO-1 (Acute Myeloid Leukemia)
How it was run: as §1

[4] = test system: EFM-192A (Breast Carcinoma)
How it was run: as §1

[5] = test system: U-118-MG (Low Grade Glioma)
How it was run: as §1

[6] = test system: 647-V (Bladder Carcinoma)
How it was run: as §1

[7] = test system: SK-LMS-1 (Other Solid Carcinomas)
How it was run: as §1

A172 (Glioblastoma) = test system: A172 (Glioblastoma)
How it was run: as §1

[8] = test system: GDM-1 (Acute Myeloid Leukemia)
How it was run: as §1

HuO9 (Osteosarcoma) = test system: HuO9 (Osteosarcoma)
How it was run: as §1

[9] = test system: WSU-DLCL2 (B-Cell Non-Hodgkin's Lymphoma)
How it was run: as §1

[10] = test system: TYK-nu (Ovarian Carcinoma)
How it was run: as §1

[11] = test system: SNG-M (Endometrial Carcinoma)
How it was run: as §1

[12] = test system: BICR78 (Oral Cavity Carcinoma)
How it was run: as §1

[13] = test system: JHH-6 (Hepatocellular Carcinoma)
How it was run: as §1

[14] = test system: PA-TU-8902 (Pancreatic Carcinoma)
How it was run: as §1

SMILES	combination Emax (MCF7 (Breast Carcinoma))	combination Emax (CS1 (Chondrosarcoma))	combination Emax [1]	combination Emax (H4 (Low Grade Glioma))	combination Emax (EW-22 (Ewing's Sarcoma))	combination Emax [2]	combination Emax [3]	combination Emax [4]	combination Emax [5]	combination Emax [6]	combination Emax [7]	combination Emax (A172 (Glioblastoma))	combination Emax [8]	combination Emax (HuO9 (Osteosarcoma))	combination Emax [9]	combination Emax [10]	combination Emax [11]	combination Emax [12]	combination Emax [13]	combination Emax [14]
Cc1c2c(nn1C)CSCc1cc(n(C)n1)CSc1cc(c3ccccc3c1)OCCCc1c(C(=O)O)n(C)c3c-2c(Cl)ccc13 [AZD5991] + C=CCn1c(=O)c2cnc(Nc3ccc(N4CCN(C)CC4)cc3)nc2n1-c1cccc(C(C)(C)O)n1 [AZD1775] (first compound max 1 µM, partner max 1 µM)	0.652	0.563	0.601	0.9	0.789	0.402	0.989	0.71	0.339	0.978	0.431	0.609	0.961	1	1	0.761	0.733	0.381	0.326	0.31
CC1(C)CCC(CN2CCN(c3ccc(C(=O)NS(=O)(=O)c4ccc(NCC5CCOCC5)c([N+](=O)[O-])c4)c(Oc4cnc5[nH]ccc5c4)c3)CC2)=C(c2ccc(Cl)cc2)C1 [Venetoclax] + C[C@@H](Nc1cc(F)cc(F)c1)c1cc(C(=O)N(C)C)cc2c(=O)cc(N3CCOCC3)oc12 [AZD8186] (first compound max 1 µM, 7x7, partner max 3 µM)	0.255	0.415	0.191	0.383	0.881	0.275	0.931	0.178	0.284	0.17	0.412	0.171	0.934	0.468	0.888	0.495	0.655	0.434	0.193	0.115
Cn1cnc2c(F)c(Nc3ccc(Br)cc3Cl)c(C(=O)NOCCO)cc21 [Selumetinib] + CC(C)n1c(=O)n(C)c2cnc3cc(F)c(-c4ccc(OCCCN5CCCCC5)nc4)cc3c21 [AZD1390] (first compound max 10 µM, 7x7, partner max 0.3 µM)	0.084	0.256	0.223	0.13	0.128	0.38	0.767	0.103	0.178	0.154	0.264	0.257	0.165	0.626	0.14	0.548	0.187	0.3	0.168	0.307
CN(CCO)CC[C@H](CSc1ccccc1)Nc1ccc(S(=O)(=O)NC(=O)c2ccc(N3CCC([C@@H](O)c4ccccc4-c4ccc(Cl)cc4)CC3)cc2)cc1S(=O)(=O)C(F)(F)F [AZD4320] + Cc1cc2ncnn2cc1Nc1ncc2c(n1)n(C1CCOCC1)c(=O)n2C [AZD7648] (first compound max 1 µM, 7x7, partner max 10 µM)	0.367	0.347	0.617	0.204	0.905	0.632	0.475	0.226	0.351	0.219	0.447	0.262	0.982	0.77	0.744	0.344	0.264	0.198	0.174	0.144
Cc1c2c(nn1C)CSCc1cc(n(C)n1)CSc1cc(c3ccccc3c1)OCCCc1c(C(=O)O)n(C)c3c-2c(Cl)ccc13 [AZD5991] + Cc1cc2ncnn2cc1Nc1ncc2c(n1)n(C1CCOCC1)c(=O)n2C [AZD7648] (first compound max 1 µM, 7x7, partner max 10 µM)	0.665	0.207	0.297	0.378	0.504	0.33	0.865	0.692	0.425	0.719	0.344	0.322	0.619	1	1	0.412	0.299	0.219	0.219	0.321
CCN(CCO)CCCOc1ccc2c(Nc3cc(CC(=O)Nc4cccc(F)c4)[nH]n3)ncnc2c1 [AZD2811] + O=C(c1cc(Cc2n[nH]c(=O)c3ccccc23)ccc1F)N1CCN(C(=O)C2CC2)CC1 [Olaparib] (first compound max 1 µM, 7x7, partner max 10 µM)	0.224	0.386	0.196	0.558	0.949	0.961	0.396	0.212	0.377	0.275	0.367	0.534	0.818	0.293	0.273	0.359	0.25	0.285	0.241	0.187
C[C@@H](c1ccc2nccn2c1)n1nnc2ncc(-c3cnn(C)c3)nc21 [Savolitinib] + Cc1c2c(nn1C)CSCc1cc(n(C)n1)CSc1cc(c3ccccc3c1)OCCCc1c(C(=O)O)n(C)c3c-2c(Cl)ccc13 [AZD5991] (first compound max 1 µM, 7x7, partner max 1 µM)	0.49	0.266	0.314	0.298	0.271	0.24	0.864	0.587	0.258	0.233	0.223	0.112	0.208	0.739	0.985	0.295	0.32	0.231	0.103	0.184
Cc1c2c(nn1C)CSCc1cc(n(C)n1)CSc1cc(c3ccccc3c1)OCCCc1c(C(=O)O)n(C)c3c-2c(Cl)ccc13 [AZD5991] + C1CN(CCC1(C(=O)N[C@@H](CCO)C2=CC=C(C=C2)Cl)N)C3=NC=NC4=C3C=CN4 [Capivasertib] (first compound max 1 µM, 7x7, partner max 3 µM)	0.687	0.255	0.322	0.495	0.624	0.28	0.909	0.67	0.289	0.676	0.302	0.234	0.454	1	1	0.36	0.333	0.266	0.278	0.174
Cc1cc2ncnn2cc1Nc1ncc2c(n1)n(C1CCOCC1)c(=O)n2C [AZD7648] + O=C(c1cc(Cc2n[nH]c(=O)c3ccccc23)ccc1F)N1CCN(C(=O)C2CC2)CC1 [Olaparib] (first compound max 10 µM, 7x7, partner max 10 µM)	0.29	0.221	0.135	0.585	0.918	0.246	0.365	0.278	0.394	0.219	0.281	0.468	0.628	0.441	0.307	0.415	0.143	0.182	0.158	0.112
COc1cccc(OCCCN)c1-c1cc(Nc2cnc(C#N)cn2)n[nH]1 [Prexasertib] + O=C(c1cc(Cc2n[nH]c(=O)c3ccccc23)ccc1F)N1CCN(C(=O)C2CC2)CC1 [Olaparib] (first compound max 1 µM, 7x7, partner max 10 µM)	0.429	0.706	0.528	0.845	0.957	0.658	1	0.143	0.751	0.843	0.676	0.626	0.91	0.878	1	0.748	0.929	0.679	0.499	0.501
CN(CCO)CC[C@H](CSc1ccccc1)Nc1ccc(S(=O)(=O)NC(=O)c2ccc(N3CCC([C@@H](O)c4ccccc4-c4ccc(Cl)cc4)CC3)cc2)cc1S(=O)(=O)C(F)(F)F [AZD4320] + C[C@@H](Nc1cc(F)cc(F)c1)c1cc(C(=O)N(C)C)cc2c(=O)cc(N3CCOCC3)oc12 [AZD8186] (first compound max 1 µM, 7x7, partner max 3 µM)	0.544	0.839	0.484	0.583	1	0.914	0.636	0.345	0.812	0.989	0.94	0.327	1	0.953	0.978	0.645	0.674	0.446	0.326	0.387
Cn1cnc2c(F)c(Nc3ccc(Br)cc3Cl)c(C(=O)NOCCO)cc21 [Selumetinib] + C=CCn1c(=O)c2cnc(Nc3ccc(N4CCN(C)CC4)cc3)nc2n1-c1cccc(C(C)(C)O)n1 [AZD1775] (first compound max 10 µM, partner max 1 µM)	0.247	0.386	0.525	0.739	0.573	0.433	0.999	0.248	0.327	0.651	0.599	0.365	0.898	0.747	0.961	0.715	0.555	0.344	0.297	0.571
COc1nnc2ccc(N3CCC(c4ccc(OCCN5CCN(C)C(=O)[C@H]5C)cc4)CC3)nn12 [AZD5153] + CCN(CCO)CCCOc1ccc2c(Nc3cc(CC(=O)Nc4cccc(F)c4)[nH]n3)ncnc2c1 [AZD2811] (first compound max 1 µM, 7x7, partner max 1 µM)	0.653	0.46	0.389	0.668	0.787	0.912	0.961	0.361	0.362	0.545	0.548	0.574	0.952	0.673	0.942	0.657	0.502	0.542	0.552	0.323
